Results from patent US20170095496A1, “GALACTOSIDE INHIBITORS FOR NEW USES” (GALECTO BIOTECH AB, priority 2014, published 2017).
Entries after “also recorded” stand apart in the source; their conditions may differ.

Key:
BV2 microglial cells [1] = test: iNOS expression by western blot in BV2 microglia activated with α-synuclein; format: cell-based, Murine; conditions: for down regulation of iNOS expression: α-synuclein aggregates 20 μM; for inhibition of iNOS expression induced by α-synuclein monomers: inhibitor 30 min pre-treatment, monomers 20 μM
Protocol: Murine (microglial cell line (BV2 cells)) was culture in Dulbecco's modified Eagle's medium (DMEM) containing 10% Fetal Bovine Serum (Invitrogen) with 100 U/ml Penicillin and 100 U/ml Streptomycin (Invitrogen) in 5% CO2 atmosphere at 37° C. One day before BV2 were seeded at a concentration of 2×10^5 cells/well in 24 wells plate (Nunc). The BV2 cells were treated with α-synuclein monomers and aggregates at different concentrations: 5 μM, 10 μM and 20 μM. The cells were also treated with LPS (Sigma-Aldrich) at 1 μg/ml. All the treatments were conducted for 12 h.
We used a small inhibitory molecule for galectin-3 activity, bis-{3-deoxy-3-[4-(3-fluorophenyl)-1H-1,2,3-triazol-1-yl]-β-D-galactopyranosyl} sulfane (Mackinnon et al., 2012, Volarevic et al., 2012, Saksida et al., 2013). This inhibitor was used as pre-treatment for 30 min throughout the study, except in the phagocytic assay when we used 12 h incubation time. To test the inhibitor ability alter α-synuclein-induced inflammation, we tested different concentration, from 5 μM to 100 μM. After 30 min pre-treatment with the inhibitor, we add the treatments of α-synuclein monomers or aggregates of at different concentration for 12 h. The inhibitor is dilute in DMSO (40%) and distilled water (60%) in a stock concentration of 4 mM.
Transfection of BV2 cells was carried out using Lipofectamine 2000 (Invitrogen) following the manufacturer's recommendation. Non-targeting control and galectin-3 siRNAs were obtained from Dharmacon. (SMART pool) siRNA sequence used: siLGal3S3(1) J-041097-09 GAGAGAUACCCAUCGCUUU (SEQ ID NO:4), siLGal3S3(2) J-041097-10 ACUUCAAGGUUGCGGUCAA (SEQ ID NO:5), siLGal3S3(3) J-041097-11 ACAGUGAAACCCAACGCAA (SEQ ID NO:6), siLGal3S3(4) J-041097-12 GGAUGAAGAACCUCCGGGA (SEQ ID NO:7).
Western blot was performed for iNOS and galectin-3 protein levels for BV2 microglial cell or for primary microglial cells. Briefly, 5 or 10 μg of proteins of sample were loaded on 4-20% Mini-Protean TGX Precast Gels (Bio-Rad) and the transferred to Nitrocellulose membrane (Bio-Rad) using Trans-Blot Turbo System (Bio-Rad). We blocked the membrane during 1 h at room temperature with 10% Casein (Sigma-Aldrich) diluted in PBS (tablets, Sigma-Aldrich). After blocking we incubate with the primary appropriate antibody at 4° C. overnight. We clean the membranes with PBS-Tween 20 (0.1%) and then incubate during 2 h at room temperature with the appropriate peroxidase secondary antibody (Vector Labs). Each blot was developed using Clarity Western ECL Substrate (Biorad). The protein level, measured by Bradford assay (Thermo Scientific), was normalized correcting the protein level with β-Actin. The results were normalized to the highest concentration used (20 μM) in each experiment in order to normalize inflammatory response. We also used Western Blot to estimate the composition of the α-synuclein aggregates that we generated from monomeric α-synuclein.
Next, we wanted to assess the role of galectin-3 inhibition in α-synuclein-induced activation of microglial cells. To this end, microglial cells were pretreated with the galectin-3 inhibitor at different concentrations (5, 25, 50 and 100 μM), for 30 min, then the cells were washed to remove the inhibitor to further treat them with α-synuclein monomers or aggregates (20 μM) for 12 h whereafter the iNOS protein expression levels were analyzed. […] Indeed, more than 50% down regulation of iNOS expression was found at 50 and 100 μM inhibitor treatment.
To further test the role of galectin-3 in microglial activation, we decided to knockdown galectin-3 expression in BV2 cells using small interferring RNA (siRNA). Galectin-3 and siRNA negative control knocked-down cells were treated with α-synuclein aggregates (20 μM) for 12 h and their iNOS expression levels were compared using western blot analysis. […] Western blot analysis showing iNOS and β-actin protein levels.

BV2 microglial cells [2] = test: Phagocytic assay (uptake of IgG-FITC beads) in α-synuclein-activated BV2 microglia; format: cell-based, Murine; conditions: for phagocytic ability on adding galectin-3 protein: BV2 cells, 12 h
Protocol: We measure microglial phagocytosis using a phagocytosis assay kit (Cayman Chem, USA) according to the protocol provided by the manufacturer's. We plated 5×10^4 cells/well in 96 well plates for 12 h before treating the cells with α-synuclein 20 μM for additional 12 h. Thereafter IgG-FITC beads we added with or without galectin-3 inhibitor for 12 h. The phagocytic ability was analyzed by a fluorescent plate reader (FluoStar Optima, BMG, LabTech, Sweden).
To test the implication of galectin-3 on phagocytic ability of microglial cells in our model of α-synuclein induced activation, we pre-treated the cells with 100 μM of galectin-3 inhibitor for 30 min and subsequently treated them with α-synuclein aggregates or combining both for 12 h. Microglial cells activated with α-synuclein show high phagocytic activity (FIG. 4).

BV2 cells = test: XTT viability assay; format: cell-based, Murine; conditions: alone or in combination with α-synuclein aggregates; data not shown
Protocol: To test if the α-synuclein, the galectin-3 inhibitor, or both, are toxic for BV2 cells in different conditions, we used an in vitro viability assay kit based on a XTT (Sigma-Aldrich) reduction spectrophotometric method to estimate the mitochondrial activity in living cells. The assay was performed following manufacturer's protocol provided in the kit. The absorbance was measured by spectrophotometrically using a plate reader.

galectins = conditions: compared with N-acetyllactosamine; cited from earlier work

OC[C@H]1O[C@@H](S[C@@H]2O[C@H](CO)[C@H](O)[C@H](n3cc(-c4cccc(F)c4)nn3)[C@H]2O)[C@H](O)[C@@H](n2cc(-c3cccc(F)c3)nn2)[C@H]1O [TD139, Bis-{3-deoxy-3-[4-(3-fluorophenyl)-1H-1,2,3-triazol-1-yl]-β-D-galactopyranosyl} sulfane]
down regulation of iNOS expression (BV2 microglial cells [1]; 50 μM inhibitor, 30 min pre-treatment, 12 h): more than 50% | down regulation of iNOS expression (BV2 microglial cells [1]; 100 μM inhibitor, 30 min pre-treatment, 12 h): more than 50% | inhibition of iNOS expression induced by α-synuclein aggregates (BV2 microglial cells [1]; inhibitor 5, 25, 50 and 100 μM, 30 min pre-treatment, aggregates 20 μM, 12 h): significantly inhibited | inhibition of iNOS expression induced by α-synuclein monomers (BV2 microglial cells [1]; 12 h): not significantly inhibited | inhibition of iNOS expression induced by α-synuclein monomers (BV2 microglial cells [1]; 12 h, listed as galectin-3 inhibitor): not to monomers | inflammatory response induced by α-synuclein (BV2 microglial cells [1]; summary statement, BV2 microglia): significant reduction | phagocytic ability (BV2 microglial cells [2]; 100 μM inhibitor as 30 min pre-treatment only): couldn't find any difference | phagocytic ability (BV2 microglial cells [2]; 100 μM inhibitor combined with α-synuclein aggregates 20 μM for 12 h): reduced phagocytic ability; also recorded: robustly inhibited the phagocytosis | phagocytic ability (BV2 microglial cells [2]; 100 μM inhibitor combined with α-synuclein aggregates 20 μM for 12 h, listed as galectin-3 inhibitor): robustly reduced to control levels | cell viability (BV2 cells): does not negatively affect cell viability

OC[C@H]1O[C@@H](S[C@@H]2O[C@H](CO)[C@H](O)[C@H](O)[C@H]2O)[C@H](O)[C@@H](O)[C@H]1O [thiodigalactoside]
efficiency as galectin inhibitor (galectins): approximately as efficient as N-acetyllactosamine

galectin-3 protein: galectin-3 protein added to microglial cells in the phagocytic assay
phagocytic ability on adding galectin-3 protein (BV2 microglial cells [2]): increases the phagocytic ability to a similar extent as α-synuclein aggregates | phagocytic ability on adding galectin-3 protein (BV2 microglial cells [2]; listed as galectin-3): recover the phagocytic ability
